Experiment [1] addresses Serine/threonine-protein kinase OSR1 (Homo sapiens) (UniProt O95747). Kind of experiment: Selectivity interaction (KinomeScan (DiscoverX)) EUB0000595a OXSR1. The note with it: at 10 µM.
Experiment [2] deals with Dual specificity protein kinase CLK1 (Homo sapiens, UniProt P49759). Description: Selectivity interaction (KinomeScan (DiscoverX)) EUB0000595a CLK1. The conditions noted are these: at 10 µM.
The subject of experiment [3] is Tyrosine-protein kinase ABL1 (Homo sapiens), P00519 [Y253F]. The conditions noted are these: at 10 µM.
For experiment [4], the target named is Bone morphogenetic protein receptor type-1A (Homo sapiens, UniProt P36894). Kind of experiment: Selectivity interaction (KinomeScan (DiscoverX)) EUB0000666a BMPR1A. The conditions noted are these: at 10 µM.
Another experiment concerns the target Ephrin type-A receptor 4 (Homo sapiens, UniProt P54764). Kind of experiment: Selectivity interaction (KinomeScan (DiscoverX)) EUB0000607a EPHA4. The note with it: at 10 µM.
For experiment [5], the target named is Tyrosine-protein kinase ABL1 (Homo sapiens, UniProt P00519). The note with it: at 10 µM.
Experiment [6] has as its target T1, Activin receptor type-1B (Homo sapiens) (UniProt P36896).
T1 sequence (whole entry): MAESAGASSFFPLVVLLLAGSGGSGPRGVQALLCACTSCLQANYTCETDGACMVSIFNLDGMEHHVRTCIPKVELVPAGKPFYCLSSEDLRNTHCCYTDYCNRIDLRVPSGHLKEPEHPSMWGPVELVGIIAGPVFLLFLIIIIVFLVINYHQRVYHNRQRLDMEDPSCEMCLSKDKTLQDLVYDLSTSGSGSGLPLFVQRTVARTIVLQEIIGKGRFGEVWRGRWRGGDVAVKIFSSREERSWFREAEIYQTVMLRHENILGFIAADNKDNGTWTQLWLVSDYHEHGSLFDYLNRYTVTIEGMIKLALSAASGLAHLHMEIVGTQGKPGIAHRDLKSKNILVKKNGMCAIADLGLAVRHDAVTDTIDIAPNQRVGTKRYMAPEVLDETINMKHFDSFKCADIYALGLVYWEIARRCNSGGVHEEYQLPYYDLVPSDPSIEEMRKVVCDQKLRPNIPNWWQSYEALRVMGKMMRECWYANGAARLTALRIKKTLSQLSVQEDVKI
The conditions noted are these: at 10 µM.

In the next experiment the target is Aurora kinase B (Homo sapiens, UniProt Q96GD4). Description: Selectivity interaction (ActivX KiNativ screen (kinase selectivity in THP-1 cell lysates)) EUB0000639a AURKB. It is filed as subcellular. The conditions noted are these: lysate, at 1 µM.
Sequence of Aurora kinase B (Q96GD4 whole entry): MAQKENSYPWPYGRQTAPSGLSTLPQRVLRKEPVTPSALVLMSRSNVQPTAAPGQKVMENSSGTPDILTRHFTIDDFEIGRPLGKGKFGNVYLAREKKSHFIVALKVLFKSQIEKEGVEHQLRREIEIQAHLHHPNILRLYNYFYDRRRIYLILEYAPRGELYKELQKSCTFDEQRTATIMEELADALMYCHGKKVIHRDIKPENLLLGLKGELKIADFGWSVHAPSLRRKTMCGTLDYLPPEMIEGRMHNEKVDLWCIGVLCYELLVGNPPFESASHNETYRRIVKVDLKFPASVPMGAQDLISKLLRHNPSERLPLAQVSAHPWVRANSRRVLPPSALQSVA
Experiment [7] has as its target MAP/microtubule affinity-regulating kinase 3 (Homo sapiens) (UniProt P27448). Kind of experiment: Selectivity interaction (ActivX KiNativ screen (kinase selectivity in THP-1 cell lysates)) EUB0000639a MARK3. It is filed as subcellular. The note with it: lysate.
The target in experiment [8] is Calcium/calmodulin-dependent protein kinase kinase 2 (Homo sapiens) (UniProt Q96RR4). Kind of experiment: Selectivity interaction (Kinase panel (DSF assay)) EUB0001559a CAMKK2.
Sequence of Calcium/calmodulin-dependent protein kinase kinase 2 (Homo sapiens) (Q96RR4 2-588 limits assumed): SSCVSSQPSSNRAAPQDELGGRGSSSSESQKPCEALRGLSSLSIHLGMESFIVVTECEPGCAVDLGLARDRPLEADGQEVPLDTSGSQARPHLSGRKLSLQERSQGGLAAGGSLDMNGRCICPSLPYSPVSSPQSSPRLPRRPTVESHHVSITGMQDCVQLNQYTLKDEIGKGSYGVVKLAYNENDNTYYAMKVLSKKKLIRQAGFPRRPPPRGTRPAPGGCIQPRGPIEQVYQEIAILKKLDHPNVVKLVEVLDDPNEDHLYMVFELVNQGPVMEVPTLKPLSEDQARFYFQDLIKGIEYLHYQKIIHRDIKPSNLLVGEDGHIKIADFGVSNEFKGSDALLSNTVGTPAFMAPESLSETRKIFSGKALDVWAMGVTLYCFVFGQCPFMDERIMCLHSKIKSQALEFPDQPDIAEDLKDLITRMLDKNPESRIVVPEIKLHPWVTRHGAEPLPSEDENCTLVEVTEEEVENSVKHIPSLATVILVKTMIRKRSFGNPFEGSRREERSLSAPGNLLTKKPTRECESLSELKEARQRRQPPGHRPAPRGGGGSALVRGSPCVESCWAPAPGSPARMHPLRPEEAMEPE
Experiment [9] has as its target 5'-AMP-activated protein kinase catalytic subunit alpha-1 (Homo sapiens, UniProt Q13131). Kind of experiment: Selectivity interaction (Ambit KINOMEscan and KiNATiv profiling in Jurkat cells) EUB0000090b PRKAA1. It is filed as cell-based. The note with it: at 1 µM.
In experiment [10] the target is T2, MAP/microtubule affinity-regulating kinase 4 (Homo sapiens) (UniProt Q96L34).
T2 sequence (whole entry): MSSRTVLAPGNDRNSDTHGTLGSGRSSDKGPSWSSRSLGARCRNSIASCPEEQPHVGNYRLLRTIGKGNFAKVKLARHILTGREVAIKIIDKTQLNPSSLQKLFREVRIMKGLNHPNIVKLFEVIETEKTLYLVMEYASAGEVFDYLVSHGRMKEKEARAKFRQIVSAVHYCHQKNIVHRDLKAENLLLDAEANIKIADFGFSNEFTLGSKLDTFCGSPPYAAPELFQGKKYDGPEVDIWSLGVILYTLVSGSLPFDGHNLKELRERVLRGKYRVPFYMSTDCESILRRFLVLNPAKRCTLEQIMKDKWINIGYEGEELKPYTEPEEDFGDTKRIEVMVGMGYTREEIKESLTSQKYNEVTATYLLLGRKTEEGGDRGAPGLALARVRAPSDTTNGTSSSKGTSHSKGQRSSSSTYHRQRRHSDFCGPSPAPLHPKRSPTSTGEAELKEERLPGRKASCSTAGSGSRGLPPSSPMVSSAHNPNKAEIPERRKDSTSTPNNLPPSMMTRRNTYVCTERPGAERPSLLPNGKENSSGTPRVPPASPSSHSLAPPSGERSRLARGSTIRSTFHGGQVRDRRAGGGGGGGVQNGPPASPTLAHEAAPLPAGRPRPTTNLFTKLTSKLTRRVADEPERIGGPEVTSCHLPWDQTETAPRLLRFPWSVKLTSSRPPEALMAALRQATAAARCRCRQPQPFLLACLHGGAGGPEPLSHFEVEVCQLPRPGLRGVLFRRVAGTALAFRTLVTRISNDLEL
Description: Selectivity interaction (Ambit KINOMEscan and KiNATiv profiling in Jurkat cells) EUB0000090b MARK4. The conditions noted are these: at 1 µM. It is filed as cell-based.

Experiment [11] has as its target Serine/threonine-protein kinase MARK1 (Homo sapiens) (UniProt Q9P0L2). Description: Selectivity interaction (Upstate Kinase Profiler service (Millipore)) EUB0000056c MARK1. The note with it: at 1 µM.
The target of experiment [12] is Calcium/calmodulin-dependent protein kinase type II subunit alpha (Homo sapiens, UniProt Q9UQM7). Kind of experiment: Selectivity interaction (KinomeScan (DiscoverX)) EUB0000655a CAMK2A. The note with it: at 10 µM.
Sequence of Calcium/calmodulin-dependent protein kinase type II subunit alpha (Q9UQM7 whole entry): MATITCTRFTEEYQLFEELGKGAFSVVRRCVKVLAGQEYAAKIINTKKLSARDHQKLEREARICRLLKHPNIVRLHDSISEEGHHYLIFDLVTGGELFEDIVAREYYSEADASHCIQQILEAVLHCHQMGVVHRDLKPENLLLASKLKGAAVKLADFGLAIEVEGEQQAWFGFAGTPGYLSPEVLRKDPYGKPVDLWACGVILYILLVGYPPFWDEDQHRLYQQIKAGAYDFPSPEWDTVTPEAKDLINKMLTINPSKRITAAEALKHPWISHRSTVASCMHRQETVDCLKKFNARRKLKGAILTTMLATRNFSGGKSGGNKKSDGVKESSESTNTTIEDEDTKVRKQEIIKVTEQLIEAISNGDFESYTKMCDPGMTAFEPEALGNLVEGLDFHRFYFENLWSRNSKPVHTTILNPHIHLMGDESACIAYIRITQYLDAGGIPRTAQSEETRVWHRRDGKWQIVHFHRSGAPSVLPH
The target of experiment [13] is T3, Mitogen-activated protein kinase 13 (Homo sapiens) (UniProt O15264).
T3 sequence (whole entry): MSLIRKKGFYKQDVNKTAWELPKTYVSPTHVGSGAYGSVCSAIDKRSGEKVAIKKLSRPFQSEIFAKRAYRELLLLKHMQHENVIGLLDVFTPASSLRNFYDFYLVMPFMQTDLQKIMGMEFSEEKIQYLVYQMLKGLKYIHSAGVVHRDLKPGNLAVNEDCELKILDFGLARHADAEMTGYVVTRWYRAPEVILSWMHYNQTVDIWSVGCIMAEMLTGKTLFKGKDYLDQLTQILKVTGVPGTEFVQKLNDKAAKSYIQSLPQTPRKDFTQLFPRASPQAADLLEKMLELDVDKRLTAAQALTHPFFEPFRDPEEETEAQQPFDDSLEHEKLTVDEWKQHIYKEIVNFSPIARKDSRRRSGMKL
Description: Selectivity interaction (KinomeScan (DiscoverX)) EUB0000618a MAPK13. The note with it: at 10 µM.

The target of experiment [14] is Fibroblast growth factor receptor 2 (Homo sapiens) (UniProt P21802). Description: Selectivity interaction (KinomeScan (DiscoverX)) EUB0000618a FGFR2. The note with it: at 10 µM.
Sequence of Fibroblast growth factor receptor 2 (Homo sapiens) (P21802 22-821 limits assumed): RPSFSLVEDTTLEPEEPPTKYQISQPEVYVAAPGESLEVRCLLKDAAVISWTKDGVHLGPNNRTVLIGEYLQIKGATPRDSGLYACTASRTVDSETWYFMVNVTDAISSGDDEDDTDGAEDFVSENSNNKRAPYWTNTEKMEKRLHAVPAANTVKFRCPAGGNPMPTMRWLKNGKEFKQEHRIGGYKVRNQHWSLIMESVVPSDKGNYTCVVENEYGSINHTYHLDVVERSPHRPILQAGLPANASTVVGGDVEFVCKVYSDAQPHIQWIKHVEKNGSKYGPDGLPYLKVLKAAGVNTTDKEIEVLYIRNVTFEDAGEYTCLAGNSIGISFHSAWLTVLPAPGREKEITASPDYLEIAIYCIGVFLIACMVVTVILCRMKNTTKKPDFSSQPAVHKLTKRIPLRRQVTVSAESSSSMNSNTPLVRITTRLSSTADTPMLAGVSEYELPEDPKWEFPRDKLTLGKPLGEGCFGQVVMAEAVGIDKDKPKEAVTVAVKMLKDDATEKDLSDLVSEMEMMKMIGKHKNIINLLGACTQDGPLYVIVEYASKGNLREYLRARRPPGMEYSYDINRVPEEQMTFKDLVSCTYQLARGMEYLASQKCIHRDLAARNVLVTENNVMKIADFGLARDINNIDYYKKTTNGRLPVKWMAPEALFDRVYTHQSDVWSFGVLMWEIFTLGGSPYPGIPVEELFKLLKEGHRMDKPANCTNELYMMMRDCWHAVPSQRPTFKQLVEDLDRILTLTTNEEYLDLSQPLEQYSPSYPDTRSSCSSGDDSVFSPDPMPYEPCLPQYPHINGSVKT
Experiment [15] deals with Interferon-induced, double-stranded RNA-activated protein kinase (Homo sapiens) (UniProt P19525). Kind of experiment: Selectivity interaction (KinomeScan (DiscoverX)) EUB0000618a EIF2AK2. The conditions noted are these: at 10 µM.
Experiment [16] concerns the target Mitogen-activated protein kinase kinase kinase 1 (Homo sapiens, UniProt Q13233). Kind of experiment: Selectivity interaction (KinomeScan (DiscoverX)) EUB0000092b MAP3K1. The note with it: at 10 µM.

SMILES strings stand for the structures.

Sequence of MAP/microtubule affinity-regulating kinase 3 (Homo sapiens) (P27448 whole entry, looked up): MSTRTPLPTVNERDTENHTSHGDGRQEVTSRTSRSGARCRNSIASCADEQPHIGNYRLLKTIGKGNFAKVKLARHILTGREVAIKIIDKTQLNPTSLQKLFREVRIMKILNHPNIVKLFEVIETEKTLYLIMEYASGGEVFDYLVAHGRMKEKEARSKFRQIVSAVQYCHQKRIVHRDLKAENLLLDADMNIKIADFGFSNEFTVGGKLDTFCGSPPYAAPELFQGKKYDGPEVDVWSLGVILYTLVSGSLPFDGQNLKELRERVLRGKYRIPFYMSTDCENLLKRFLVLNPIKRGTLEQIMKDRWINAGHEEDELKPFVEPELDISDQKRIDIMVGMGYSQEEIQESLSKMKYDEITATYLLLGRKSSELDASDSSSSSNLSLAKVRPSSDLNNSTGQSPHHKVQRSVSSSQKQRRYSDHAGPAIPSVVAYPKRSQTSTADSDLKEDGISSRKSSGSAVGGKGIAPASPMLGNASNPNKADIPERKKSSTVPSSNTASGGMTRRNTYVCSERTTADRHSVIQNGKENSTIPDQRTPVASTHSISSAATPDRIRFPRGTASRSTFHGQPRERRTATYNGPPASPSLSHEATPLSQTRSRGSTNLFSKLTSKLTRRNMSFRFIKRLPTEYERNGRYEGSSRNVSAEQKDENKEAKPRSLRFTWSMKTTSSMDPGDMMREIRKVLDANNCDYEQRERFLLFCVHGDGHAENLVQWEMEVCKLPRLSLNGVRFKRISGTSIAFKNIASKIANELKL
Sequence of Dual specificity protein kinase CLK1 (P49759 whole entry, looked up): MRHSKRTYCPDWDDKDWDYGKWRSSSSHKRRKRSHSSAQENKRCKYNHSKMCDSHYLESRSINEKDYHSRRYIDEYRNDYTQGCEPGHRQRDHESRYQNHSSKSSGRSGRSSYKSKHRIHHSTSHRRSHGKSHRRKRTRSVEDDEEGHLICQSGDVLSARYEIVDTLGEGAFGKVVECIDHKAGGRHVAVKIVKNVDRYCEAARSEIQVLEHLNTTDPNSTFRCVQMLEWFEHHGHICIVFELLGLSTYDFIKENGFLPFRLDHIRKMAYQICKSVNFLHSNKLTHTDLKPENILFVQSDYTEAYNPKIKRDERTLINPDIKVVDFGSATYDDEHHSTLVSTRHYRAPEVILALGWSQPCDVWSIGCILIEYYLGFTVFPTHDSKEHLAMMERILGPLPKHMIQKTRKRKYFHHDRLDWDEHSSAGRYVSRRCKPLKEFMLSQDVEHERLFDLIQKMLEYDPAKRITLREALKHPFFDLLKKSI
Sequence of 5'-AMP-activated protein kinase catalytic subunit alpha-1 (Q13131 whole entry, looked up): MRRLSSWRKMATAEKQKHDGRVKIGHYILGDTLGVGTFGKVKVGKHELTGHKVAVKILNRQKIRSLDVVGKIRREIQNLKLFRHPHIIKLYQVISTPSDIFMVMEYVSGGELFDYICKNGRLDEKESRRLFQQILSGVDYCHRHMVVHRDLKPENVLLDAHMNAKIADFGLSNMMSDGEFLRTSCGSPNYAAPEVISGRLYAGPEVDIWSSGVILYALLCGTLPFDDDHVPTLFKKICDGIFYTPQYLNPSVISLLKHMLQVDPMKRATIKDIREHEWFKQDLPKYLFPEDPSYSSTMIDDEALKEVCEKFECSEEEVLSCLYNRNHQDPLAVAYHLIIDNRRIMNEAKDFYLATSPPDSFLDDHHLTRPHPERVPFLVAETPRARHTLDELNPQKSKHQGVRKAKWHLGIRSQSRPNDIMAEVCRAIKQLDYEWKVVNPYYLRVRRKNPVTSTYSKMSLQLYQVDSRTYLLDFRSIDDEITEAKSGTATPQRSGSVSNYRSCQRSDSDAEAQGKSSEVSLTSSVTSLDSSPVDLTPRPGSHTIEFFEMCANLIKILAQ
Sequence of Ephrin type-A receptor 4 (P54764 whole entry): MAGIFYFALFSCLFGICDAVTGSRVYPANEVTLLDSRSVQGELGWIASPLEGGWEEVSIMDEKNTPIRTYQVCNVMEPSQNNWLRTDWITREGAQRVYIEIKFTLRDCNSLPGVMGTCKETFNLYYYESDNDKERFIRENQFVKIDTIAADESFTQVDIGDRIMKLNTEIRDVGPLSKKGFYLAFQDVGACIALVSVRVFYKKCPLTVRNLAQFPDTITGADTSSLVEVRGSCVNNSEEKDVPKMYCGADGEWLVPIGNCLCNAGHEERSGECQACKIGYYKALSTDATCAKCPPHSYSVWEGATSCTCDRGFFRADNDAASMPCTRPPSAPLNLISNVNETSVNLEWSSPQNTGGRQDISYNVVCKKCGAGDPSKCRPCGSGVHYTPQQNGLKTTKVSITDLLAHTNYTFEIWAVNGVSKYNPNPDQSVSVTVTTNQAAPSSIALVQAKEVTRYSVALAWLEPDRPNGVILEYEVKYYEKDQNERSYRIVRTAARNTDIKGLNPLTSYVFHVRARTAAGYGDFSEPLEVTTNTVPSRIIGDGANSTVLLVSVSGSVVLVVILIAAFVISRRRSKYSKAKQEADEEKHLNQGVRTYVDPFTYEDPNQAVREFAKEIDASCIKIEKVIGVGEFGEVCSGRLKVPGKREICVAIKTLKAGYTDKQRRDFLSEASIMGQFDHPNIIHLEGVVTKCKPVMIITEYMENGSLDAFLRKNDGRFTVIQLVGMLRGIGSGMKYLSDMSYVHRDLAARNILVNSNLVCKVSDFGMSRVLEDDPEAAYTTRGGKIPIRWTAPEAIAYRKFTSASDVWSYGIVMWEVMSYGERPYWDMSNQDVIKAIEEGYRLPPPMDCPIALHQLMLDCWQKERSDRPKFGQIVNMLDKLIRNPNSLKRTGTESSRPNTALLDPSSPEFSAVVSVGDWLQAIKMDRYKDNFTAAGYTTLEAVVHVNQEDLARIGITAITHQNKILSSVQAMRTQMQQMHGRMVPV

On to `COCC(=O)NC/C=C/c1ccc2ncnc(Nc3ccc(Oc4ccc(C)nc4)c(C)c3)c2c1` [CP-724714], for which the results for the % of control in [1] and in experiment [2] were 100% and 90%, respectively.

Compound `CCN(CC)CCCCNc1ncc2cc(-c3cc(OC)cc(OC)c3)c(NC(=O)NC(C)(C)C)nc2n1` showed a % of control in experiment [3] of 100%.

As to `O=C(NOC[C@H](O)CO)c1ccc(F)c(F)c1Nc1ccc(I)cc1F`, the % of control in experiment [4] came out at 100%.

At Ephrin type-A receptor 4, `CNC(=O)Nc1ccc(-c2nc(N3CC4CCC(C3)O4)c3cnn(C4CCC5(CC4)OCCO5)c3n2)cc1` registered a % of control of 100%.

`Cc1cc([C@@H](C)Nc2ccccc2C(=O)O)c2nc(N3CCOCC3)cc(=O)n2c1` [AZD-6482]: the % of control in experiment [5] is 88%; in experiment [6], 93%.

Regarding `CC[C@@H]1[C@H](F)C(=O)N[C@@H]1COc1nccc2cc(C(N)=O)c(OC)cc12` [ZIMLOVISERTIB], the % of inhibition on Aurora kinase B stood at 20%; in experiment [7] (at 0.01 µM), 10%; in [7] (at 0.04 µM), 17.3%; in experiment [7] (at 0.2 µM) it was 11.9%; in experiment [7] (at 1 µM) it was 26.3%; in experiment [7] (at 5 µM) it was 51.4%.

In the case of `CN(C(=O)c1cnn2cccnc12)c1cc2c(cc1N1CCOCC1)C(=O)N(C[C@@H](F)C(C)(C)O)C2`, the dTM in experiment [8] stood at 1.1 K.

Regarding `CN(C)C/C=C/C(=O)Nc1ccc(C(=O)N2CCCC(Nc3ncc(Cl)c(-c4c[nH]c5ccccc45)n3)C2)cc1` (configuration not stated), the % of control stood at 79% in experiment [9] and 100% in [10].

In experiment [11], `Cc1ccc(-c2ccc3c(ccc4sc5c(c43)NC[C@@H](C)NC5=O)n2)cn1` returned a % of inhibition of 5%.

Consider `CN(C)CCOc1ccc(-c2nc(-c3ccncc3)c(-c3ccc4c(c3)CC/C4=N\O)[nH]2)cc1`, for which the % of control in [12] came out at 88%.

Take `O[C@H]1CC[C@H](Nc2ncc3nc(Nc4c(F)cc(F)cc4F)n([C@H]4CCOC4)c3n2)CC1`: the values for the % of control in [13], in experiment [14] and in experiment [15] were 90%, 83% and 100%, respectively.

As for `CCC(=O)N1CCN(c2ccc(-n3c(=O)ccc4cnc5ccc(-c6cnc7ccccc7c6)cc5c43)cc2C(F)(F)F)CC1`, in [16], the % of control worked out at 92%.

(Values after ChEMBL document CHEMBL5465560, “Selectivity Literature for EUbOPEN Chemogenomic Library” (2024).)
